# Columns and labels:
# Assay type in all cases: in vivo
# [1] = tested on: soybean (Glycine max L., var. Pella 86, SOY); assay: Pre-emerge greenhouse test, crop damage rating; conditions: 1000 g ai/ha, 14 days after application, rating scale 0-100
# Description: (§1) A standard greenhouse herbicide activity screening system was used to evaluate the herbicidal efficacy and crop safety of these test compounds. Six broadleaf weed species including redroot pigweed (Amaranthus retroflexus, AMARE), velvetleaf (Abutilon theophrasti, ABUTH), sicklepod (Cassia obtusifolia, CASOB), ivyleaf morningglory (Ipomoea hederacea, IPOHE), lambsquarters (Chenopodium album, CHEAL) and common ragweed (Ambrosia artemisiifolia L., AMBEL) were used as test species. Four grass weed species including green foxtail (Setaria viridis, SETVI), barnyardgrass (Echinochloa crusgalli, ECHCG), Johnsongrass (Sorghum halepense, SORHA), and large crabgrass (Digitaria sanguinalis, DIGSA) were also used. In addition, three crop species, field corn (Zea mays L., var. Dekalb 535, CORN), soybean (Glycine max L., var. Pella 86, SOY), and upland rice (Oryza sp., var.Tebonnet, RICE) were included.
# (§2) All plants were grown in 10 cm square plastic pots which were filled with a sandy loam soil mix. For preemerge tests, seeds were planted one day prior to application of the test compounds. Immediately after application, test units of the pre-emerge applications were watered at the soil surface to incorporate the test materials. Subsequently, these test units were bottom-watered.
# (§3) All test compounds were dissolved in acetone and applied to the test units in a volume of 187 l/ha. Test materials were applied at rates ranging from 125 g ai/ha to 1000 g ai/ha using a track sprayer equipped with a TJ8001E even flow flat fan spray nozzle. Plants were arranged on a shelf so that the top of the canopy (post-emerge) or top of the soil surface (pre-emerge) was 40-45 cm below the nozzle. Pressurized air was used to force the test solution through the nozzle as it was mechanically advanced (via electrically driven chain drive) over the top of all test plants/pots. This application simulates a typical commercial field herbicide application.
# (§4) At 14 days after application of the test materials, phytotoxicity ratings were recorded. A rating scale of 0-100 was used as previously described in Research Methods in Weed Science, 2nd edition, B. Truelove, Ed., Southern Weed Science Society, Auburn University, Auburn, Ala., 1977. Briefly, “0” corresponds to no damage and “100” corresponds to complete death of all plants in the test unit. This scale was used both to determine efficacy against weed species and damage to crop species. Herbicide activity data for various compounds of this invention, which are shown by compound number in Tables 1-9, are shown in Tables 13 and 14.
# [2] = tested on: green foxtail (Setaria viridis, SETVI); assay: Post-emerge greenhouse herbicide test, phytotoxicity rating; conditions: 1000 g al/ha, 14 days after application
# Description: as §1, §3
# (§5) In the post-emerge test, a commercial non-ionic surfactant was also included (0.25% v/v) to enhance wetting of the leaf surfaces Qf target plants at rates ranging from 63 g ai/ha to 1000 g ai/ha. For post-emerge tests, seeds were planted 8-21 days prior to the test to allow emergence and good foliage development prior to application of the test substances. At the time of the post-emerge application, plants of all species were usually at the 2-3 leaf stage of development. Post-emerge test units were always bottom-watered.
# as §4
# [3] = tested on: velvetleaf (Abutilon theophrasti, ABUTH); assay: as above; conditions: 1000 g al/ha, 14 days after application
# Description: as §1, §3, §5, §4
# [4] = tested on: redroot pigweed (Amaranthus retroflexus, AMARE); assay: as above; conditions: 1000 g al/ha, 14 days after application
# Description: as §1, §3, §5, §4
# [5] = tested on: sicklepod (Cassia obtusifolia, CASOB); assay: as above; conditions: 1000 g al/ha, 14 days after application
# Description: as §1, §3, §5, §4
# [6] = tested on: lambsquarters (Chenopodium album, CHEAL); assay: as above; conditions: 1000 g al/ha, 14 days after application
# Description: as §1, §3, §5, §4
# [7] = tested on: ivyleaf morningglory (Ipomoea hederacea, IPOHE); assay: as above; conditions: 1000 g al/ha, 14 days after application
# Description: as §1, §3, §5, §4
# [8] = tested on: large crabgrass (Digitaria sanguinalis, DIGSA); assay: as above; conditions: 1000 g al/ha, 14 days after application
# Description: as §1, §3, §5, §4
# [9] = tested on: Johnsongrass (Sorghum halepense, SORHA); assay: as above; conditions: 1000 g al/ha, 14 days after application
# Description: as §1, §3, §5, §4
# [10] = tested on: barnyardgrass (Echinochloa crusgalli, ECHCG); assay: as above; conditions: 1000 g al/ha, 14 days after application
# Description: as §1, §3, §5, §4
# [11] = tested on: upland rice (Oryza sp., var.Tebonnet, RICE); assay: Post-emerge greenhouse test, crop damage rating; conditions: 1000 g al/ha, 14 days after application
# Description: as §1, §3, §5, §4
# [12] = tested on: field corn (Zea mays L., var. Dekalb 535, CORN); assay: Post-emerge greenhouse test, crop damage rating; conditions: 1000 g al/ha, 14 days after application
# Description: as §1, §3, §5, §4
# [13] = tested on: green foxtail (Setaria viridis, SETVI); assay: Pre-emerge greenhouse herbicide test, phytotoxicity rating; conditions: 1000 g ai/ha, 14 days after application, rating scale 0-100
# Description: as §1, §2, §3, §4
# [14] = tested on: velvetleaf (Abutilon theophrasti, ABUTH); assay: as above; conditions: 1000 g ai/ha, 14 days after application, rating scale 0-100
# Description: as §1, §2, §3, §4
# [15] = tested on: redroot pigweed (Amaranthus retroflexus, AMARE); assay: as above; conditions: 1000 g ai/ha, 14 days after application, rating scale 0-100
# Description: as §1, §2, §3, §4
# [16] = tested on: sicklepod (Cassia obtusifolia, CASOB); assay: as above; conditions: 1000 g ai/ha, 14 days after application, rating scale 0-100
# Description: as §1, §2, §3, §4
# [17] = tested on: lambsquarters (Chenopodium album, CHEAL); assay: as above; conditions: 1000 g ai/ha, 14 days after application, rating scale 0-100
# Description: as §1, §2, §3, §4
# [18] = tested on: ivyleaf morningglory (Ipomoea hederacea, IPOHE); assay: as above; conditions: 1000 g ai/ha, 14 days after application, rating scale 0-100
# Description: as §1, §2, §3, §4
# [19] = tested on: large crabgrass (Digitaria sanguinalis, DIGSA); assay: as above; conditions: 1000 g ai/ha, 14 days after application, rating scale 0-100
# Description: as §1, §2, §3, §4
# [20] = tested on: Johnsongrass (Sorghum halepense, SORHA); assay: as above; conditions: 1000 g ai/ha, 14 days after application, rating scale 0-100
# Description: as §1, §2, §3, §4
# [21] = tested on: barnyardgrass (Echinochloa crusgalli, ECHCG); assay: as above; conditions: 1000 g ai/ha, 14 days after application, rating scale 0-100
# Description: as §1, §2, §3, §4
# [22] = tested on: soybean (Glycine max L., var. Pella 86, SOY); assay: Post-emerge greenhouse test, crop damage rating; conditions: 1000 g al/ha, 14 days after application
# Description: as §1, §3, §5, §4
# [23] = tested on: upland rice (Oryza sp., var.Tebonnet, RICE); assay: Pre-emerge greenhouse test, crop damage rating; conditions: 1000 g ai/ha, 14 days after application, rating scale 0-100
# Description: as §1, §2, §3, §4
# [24] = tested on: field corn (Zea mays L., var. Dekalb 535, CORN); assay: Pre-emerge greenhouse test, crop damage rating; conditions: 1000 g ai/ha, 14 days after application, rating scale 0-100
# Description: as §1, §2, §3, §4
SMILES,crop damage rating SOY [1],SETVI phytotoxicity rating (0-100) [2],ABUTH phytotoxicity rating (0-100) [3],AMARE phytotoxicity rating (0-100) [4],CASOB phytotoxicity rating (0-100) [5],CHEAL phytotoxicity rating (0-100) [6],IPOHE phytotoxicity rating (0-100) [7],DIGSA phytotoxicity rating (0-100) [8],SORHA phytotoxicity rating (0-100) [9],ECHCG phytotoxicity rating (0-100) [10],RICE crop damage rating (0-100) [11],CORN crop damage rating (0-100) [12],phytotoxicity rating SETVI [13],phytotoxicity rating AMARE [15],phytotoxicity rating CASOB [16],phytotoxicity rating CHEAL [17],phytotoxicity rating IPOHE [18],phytotoxicity rating DIGSA [19],phytotoxicity rating SORHA [20],phytotoxicity rating ECHCG [21],also measured
O=c1cc2n(c(=O)n1-c1cc(Oc3ccccc3[N+](=O)[O-])c(Cl)cc1F)CCC2 [Compound 5-1],55,20,100,30,10,80,90,0,10,30,10,0,99,99,40,100,70,100,90,95,phytotoxicity rating ABUTH [14]: 100; SOY crop damage rating (0-100) [22]: 40; crop damage rating RICE [23]: 70; crop damage rating CORN [24]: 5
O=c1cc2n(c(=O)n1-c1cc(Oc3ccc([N+](=O)[O-])cc3)c(Cl)cc1F)CCC2 [Compound 5-2],10,10,70,20,0,40,40,0,0,0,10,0,90,40,0,100,50,70,80,50,phytotoxicity rating ABUTH [14]: 100; SOY crop damage rating (0-100) [22]: 15; crop damage rating RICE [23]: 50; crop damage rating CORN [24]: 0
"O=c1cc2n(c(=O)n1-c1cc(Oc3ncccc3C(F)(F)F)c(Cl)cc1F)CCC2 [Compound 5-10, 2-[4-chloro-2-fluoro-5-(3-trifluoromethyl-2-pyridyloxy)phenyl]-6,7-dihydropyrrolo[1,2-c]pyrimidine-1,3(2H,5H)dione]",–,20,100,80,30,80,70,10,70,80,–,–,100,100,0,100,100,100,100,100,phytotoxicity rating ABUTH [14]: 100
N#Cc1ccc(Oc2cc(-n3c(=O)cc4n(c3=O)CCC4)c(F)cc2Cl)nc1 [Compound 5-11],60,10,100,70,10,90,90,0,20,20,25,15,95,80,30,100,80,90,99,95,SOY crop damage rating (0-100) [22]: 40; crop damage rating RICE [23]: 80; crop damage rating CORN [24]: 30
